# Experimental data reported in US20230193341A1, “EXPRESSION SYSTEMS, RECOMBINANT CELLS AND USES THEREOF” (Selexis SA, priority 2018, published 2023).
# Columns and labels:
# Assay type in all cases: cell-based, Chinese hamster
# ETE (Trastuzumab) cells = assay: Fed-batch culture of ETE (Trastuzumab) CHO cells: IgG production and cell survival
# Description: (§1) (A) ETE clone (Trastuzumab) non-treated (Control) or treated with 10 mM Bezafibrate PPARα ligand after […] of fed-batch culture (+Bezafibrate). Candidate gene expression were quantified at day 6 by RT-qPCR. (B) ETE cells treated with 10 mM Bezafibrate after 1-day fed-batch, and IgG titer measured after 10 days. Data are means±SE from four independent experiments. * P≤0.05 and ** P≤0.02 (t-test; 2 sided; unpaired sample, unequal variance).
# The percentage of fluorescent cells and the fluorescence intensity of GFP positive cells were determined by flow cytometry analysis using a CyAn ADP flow cytometer (BECKMAN COULTER). Immunoglobulin concentrations in cell culture supernatants were measured by sandwich ELISA. GFP, IgG1Lc, IgG1Hc and MIP transcript accumulation was confirmed by RT-quantitative PCR assays before analyses.
# (§2) Growth and IgG secretion performances in fed-batch culture were performed according to Le Fourn et al., 2013, with the following changes: IgG producing clone stably transfected for the expression of MIPs were seeded at 300′000 cells/ml in 5 mL culture medium in falcon of 50 mL. Viable cell density and IgG titer (g/L) were evaluated after 3, 6, 8, 9, 10 and 13 days.
# PPAR target genes = assay: RT-qPCR of candidate / PPAR target gene expression in ETE (Trastuzumab) clone in fed-batch culture; details: 10 mM Bezafibrate added after 3 days of fed-batch, RT-qPCR at day 6 (FIG. 6A)
# Description: as §1, §2
# (§3) For quantitative PCR (qPCR) analysis, total RNA was extracted from […] and reverse transcribed into cDNA using the GoScript Reverse transcription System (Promega). Transcripts accumulation was quantified by qPCR using the LightCycler© 480 SYBR Green I Master and the LightCycler 480 II instrument (Roche). Transcript levels were normalized to that of SDHA housekeeping gene.
# exogenous PPARα = assay: DTE (Infliximab) cells stably overexpressing mouse PPARα (PPARα_OE): gene expression (qRT-PCR) and IgG productivity
# Description: (§4) Antibiotic-selected DTE (Infliximab) cells were stably transfected with mouse PPARα or with an empty vector. Analyses of gene expression, IgG titer and cell viability were performed comparing DTE clone with empty vector cell and PPARα overexpressing cells (PPARα_OE). (A) Gene expression of PPARα targets, PPARα and IgG (qRT-PCR) in none-treated cells or cells treated with Bezafibrate (BEZA). Bezafibrate was added at 10 mM at day 1 of the fed-batch culture. RNA was extracted at day 6 of the fed-batch culture. Infliximab IgG specific productivity (B) and cell viability (C) are illustrated in non-selective or B5-starving media. Cells were cultured in 12 well-plate at a starting amount of 2*105 cell/ml in non-selective or B5 starving medium for 5 days, then transferred in non-selective media. IgG specific productivity (PCD) was then measured over 3 days of culture in non-selective media. Each measurement is the result of three independent cultures. Statistics: * P≤0.05 and ** P≤0.02 (t-test; 1 sided; unpaired sample, unequal variance).
# as §3, with “Transcript levels were normalized to that of SDHA housekeeping gene.” left out
# DTE cells = assay: Bezafibrate treatment of DTE CHO cells: target gene induction, production and fitness
# Description: as §4, §2, §3
structure (smiles),measurement,setting,value
"CC(C)(Oc1ccc(CCNC(=O)c2ccc(Cl)cc2)cc1)C(=O)O [Bezafibrate, 2-[4-[2-(4-chlorobenzamido)ethyl]phenoxy]-2-methylpropanoic acid]",recombinant protein (IgG titer) at the end of the fed-batch,"ETE (Trastuzumab) cells; ETE cells, 10 mM Bezafibrate added at day 1 of fed-batch, IgG titer after 10 days (FIG. 6B)",beneficial for recombinant protein
same,"cell division, viability and recombinant protein production","ETE (Trastuzumab) cells; ETE cells, increased bezafibrate concentration, data not shown",doesn't show any beneficial effect
same,cell survival under starvation stress during the fed-batch process,"ETE (Trastuzumab) cells; addition at day 3 of the fed-batch, data not shown",significantly improved cell survival
same,IgG production,"ETE (Trastuzumab) cells; addition at day 3 of the fed-batch, normal fed-batch conditions of feeding",no improvement of IgG production
same,expression of B5-target Slc22a14,PPAR target genes,activated
same,expression of Cyp4a14,PPAR target genes,not induced
same,"expression of PPAR target genes HmgCs2, Acot1, DBI1, AscI1 and RXR nuclear receptor",PPAR target genes,induces PPAR target genes
same,IgG productivity,exogenous PPARα; PPARα_OE DTE (Infliximab) cells with bezafibrate (FIG. 7B),higher IgG productivity
same,"transcription of PPAR-target genes, RXR nuclear factor and IgG light and heavy chains","exogenous PPARα; PPARα_OE DTE (Infliximab) cells, Bezafibrate 10 mM at day 1, RNA at day 6 of fed-batch (FIG. 7A)",induced the transcription of PPAR-target genes
same,cell production and fitness,DTE cells,the cell production and fitness weren't improved
same,induction of PPAR target genes,DTE cells,the same target genes are induced
same,"cell division, viability and recombinant protein production","DTE cells; increased bezafibrate concentration, data not shown",doesn't show any beneficial effect
